# Reference: patent US20250312352A1, “GLP-1R MODULATING COMPOUNDS” (Gilead Sciences, Inc., priority 2021, published 2025)
# Target: T1, GLP-1R (Homo sapiens, UniProt P43220)
# T1 construct: host or cells: CHO cells
# Assay: GLP-1R activation cAMP assay (Assay 1 or Assay 2)
# Format: cell-based
# Conditions: cAMP increase in CHO cells stably expressing GLP-1R; compounds run on one of the two cAMP assays
# Experimental: GLP-1R ACTIVATION—cAMP Assay 1
# GLP-1R activation by compounds of the present disclosure was quantified by measuring cAMP increase in CHO cells stably expressing GLP-1R (MultiSpan product #C1267-1a). The cells were harvested and plated in growth medium (DMEM/F-12 (Corning product #10-090-CV) supplemented with 10% FBS (HyClone product #SH30071-03), penicillin/streptomycin (Corning product #30-002CI) and 10 μg/ml puromycin (Gibco product #A11138-03)) at 1,000 cells/well in a 384-well plate (Greiner product #781080). The cells were then incubated overnight at 37° C., 5% CO2. The next day, the medium was removed and the cells were washed with DPBS (Corning product #21-031-CM) before adding the assay medium (HBSS, Corning product #21-023-CV) with 20 mM Hepes (Gibco product #15630-080) and 0.1% BSA (Rockland Immunochemicals product #BSA-1000)). Following the medium change, the cells were incubated for 1 hour at 37° C., 5% CO2. The tested GLP-1 compound was added to the cells in a 10-point dose response followed by a 30-minute incubation at 37° C., 5% CO2. cAMP concentration increase was then detected using Cisbio's cAMP Gs Dynamic Kit (product #62AM4PEC) according to the manufacturer's protocol. The response was plotted against the log of the agonist concentration and fitted to a sigmoidal equation to determine the EC50.
# GLP-1R ACTIVATION—cAMP Assay 2
# GLP-1R activation by small molecule agonists was quantified by measuring cAMP increase in CHO cells stably expressing GLP-1R (MultiSpan product #C1267-1a). 50 nL of agonists were pre-spotted in a 10-point dose response onto 384-well plate (Corning product #CL3826) using the Labcyte Echo System.
# T1 sequence (P43220 24-463): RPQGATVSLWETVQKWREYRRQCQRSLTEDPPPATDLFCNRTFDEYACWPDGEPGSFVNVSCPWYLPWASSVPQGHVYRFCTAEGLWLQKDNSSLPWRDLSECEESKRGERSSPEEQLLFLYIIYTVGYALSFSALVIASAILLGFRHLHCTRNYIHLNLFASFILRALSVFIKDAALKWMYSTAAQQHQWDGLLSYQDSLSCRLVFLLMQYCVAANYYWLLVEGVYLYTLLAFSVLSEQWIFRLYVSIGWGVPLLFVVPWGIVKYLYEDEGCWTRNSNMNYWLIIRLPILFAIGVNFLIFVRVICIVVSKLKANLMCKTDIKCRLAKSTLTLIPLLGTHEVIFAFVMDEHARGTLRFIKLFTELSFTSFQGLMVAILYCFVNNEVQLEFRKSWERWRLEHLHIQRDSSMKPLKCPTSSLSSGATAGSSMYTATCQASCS
row,Structure (SMILES),EC50
1,"COc1nnc(COc2nc(-c3cc(F)c(Cc4nc5ccc(C(=O)O)cc5n4CC4(CF)CC4)cc3F)ccc2F)s1 [Example 268, 2-(2,5-difluoro-4-(5-fluoro-6-((5-methoxy-1,3,4-thiadiazol-2-yl)methoxy)pyridin-2-yl)benzyl)-1-((1-(fluoromethyl)cyclopropyl)methyl)-1H-benzo[d]imidazole-6-carboxylic acid]",0.762 nM
2,"O=C(O)c1ccc2nc(Cc3cc(F)c(-c4cccc(OCc5ncc(C#CC6(C(F)(F)F)CC6)s5)n4)cc3F)n(C[C@@H]3CCO3)c2c1 [Example 335, (S)-2-(2,5-difluoro-4-(6-((5-((1-(trifluoromethyl)cyclopropyl)ethynyl)thiazol-2-yl)methoxy)pyridin-2-yl)benzyl)-1-(oxetan-2-ylmethyl)-1H-benzo[d]imidazole-6-carboxylic acid]",0.202 nM
3,"O=C(O)c1ccc2nc(Cc3cc(F)c(-c4cccc(OCc5nc6c(s5)CCC6)n4)cc3F)n(C[C@@H]3CCO3)c2c1 [Example 332, (S)-2-(4-(6-((5,6-dihydro-4H-cyclopenta[d]thiazol-2-yl)methoxy)pyridin-2-yl)-2,5-difluorobenzyl)-1-(oxetan-2-ylmethyl)-1H-benzo[d]imidazole-6-carboxylic acid]",0.109 nM
4,"Cn1cc(C#Cc2cnc(COc3cccc(-c4cc(F)c(Cc5nc6ccc(C(=O)O)cc6n5C[C@@H]5CCO5)cc4F)n3)nc2)cn1 [Example 154, (S)-2-(2,5-difluoro-4-(6-((5-((1-methyl-1H-pyrazol-4-yl)ethynyl)pyrimidin-2-yl)methoxy)pyridin-2-yl)benzyl)-1-(oxetan-2-ylmethyl)-1H-benzo[d]imidazole-6-carboxylic acid]",0.52 nM
5,"O=C(O)c1cc(Cl)c2nc(Cc3cc(F)c(-c4cccc(OCc5ncc(C(F)(F)F)s5)n4)cc3F)n(C[C@@H]3CCO3)c2c1 [Example 445, (S)-4-chloro-2-(2,5-difluoro-4-(6-((5-(trifluoromethyl)thiazol-2-yl)methoxy)pyridin-2-yl)benzyl)-1-(oxetan-2-ylmethyl)-1H-benzo[d]imidazole-6-carboxylic acid]",0.101 nM
6,"CNC(=O)c1cc(Cl)c(COc2cccc(-c3cc(F)c(Cc4nc5c(F)cc(C(=O)O)cc5n4CC4(CF)CC4)cc3F)n2)cn1 [Example 417, 2-(4-(6-((4-chloro-6-(methylcarbamoyl)pyridin-3-yl)methoxy)pyridin-2-yl)-2,5-difluorobenzyl)-4-fluoro-1-((1-(fluoromethyl)cyclopropyl)methyl)-1H-benzo[d]imidazole-6-carboxylic acid]",0.26 nM
7,"O=C(O)c1cc(F)c2nc(Cc3cc(F)c(-c4cccc(OCc5ccc(C#Cc6cnc(N7CC8CCC(C7)N8C7COC7)nc6)cc5F)n4)cc3F)n(C[C@@H]3CCO3)c2c1 [Example 152, 2-(2,5-difluoro-4-(6-((2-fluoro-4-((2-(8-(oxetan-3-yl)-3,8-diazabicyclo[3.2.1]octan-3-yl)pyrimidin-5-yl)ethynyl)benzyl)oxy)pyridin-2-yl)benzyl)-4-fluoro-1-(((S)-oxetan-2-yl)methyl)-1H-benzo[d]imidazole-6-carboxylic acid]",0.68 nM
8,"N#Cc1cnc(COc2cccc(-c3cc(F)c(Cc4nc5c(F)cc(C(=O)O)cc5n4C[C@@H]4CCO4)cc3F)n2)s1 [Example 372, 2-[[4-[6-[(5-cyanothiazol-2-yl)methoxy]-2-pyridyl]-2,5-difluoro-phenyl]methyl]-7-fluoro-3-[[(2S)-oxetan-2-yl]methyl]benzimidazole-5-carboxylic acid]",0.024 nM
9,"Cc1nnc(COc2cccc(-c3cc(F)c(Cc4nc5ccc(C(=O)O)cc5n4[C@@H]4COCC4(C)C)c(F)c3F)n2)s1 (single isomer, unassigned) [Example 281A]",0.27 nM
10,"Cn1cncc1C#Cc1ccc(COc2cccc(-c3cc(F)c(Cc4nc5c(F)cc(C(=O)O)cc5n4C[C@@H]4CCO4)cc3F)n2)c(F)c1 [Example 395, (S)-2-(2,5-difluoro-4-(6-((2-fluoro-4-((1-methyl-1H-imidazol-5-yl)ethynyl)benzyl)oxy)pyridin-2-yl)benzyl)-4-fluoro-1-(oxetan-2-ylmethyl)-1H-benzo[d]imidazole-6-carboxylic acid]",0.197 nM
11,"Cn1cc(C#Cc2ccc(COc3nc(-c4cc(F)c(Cc5nc6c(F)cc(C(=O)O)cc6n5C[C@@H]5CCO5)cc4F)ccc3F)cn2)cn1 [Example 295, (S)-2-(2,5-difluoro-4-(5-fluoro-6-((6-((1-methyl-1H-pyrazol-4-yl)ethynyl)pyridin-3-yl)methoxy)pyridin-2-yl)benzyl)-4-fluoro-1-(oxetan-2-ylmethyl)-1H-benzo[d]imidazole-6-carboxylic acid]",0.202 nM

# More lines, now with the values ahead:
row,EC50,Structure (SMILES)
1,2.65 nM,"O=C(O)c1ccc2nc(Cc3cc(F)c(-c4cccc(OCc5ccc(C(F)(F)F)s5)n4)cc3F)n(C[C@@H]3CCO3)c2c1 [Example 123, (S)-2-(2,5-difluoro-4-(6-((5-(trifluoromethyl)thiophen-2-yl)methoxy)pyridin-2-yl)benzyl)-1-(oxetan-2-ylmethyl)-1H-benzo[d]imidazole-6-carboxylic acid]"
2,0.209 nM,"O=C(O)c1ccc2nc(Cc3cc(F)c(-c4cccc(OCc5nnc(OCC(F)(F)F)s5)n4)cc3F)n(C[C@@H]3CCO3)c2c1 [Example 350, (S)-2-(2,5-difluoro-4-(6-((5-(2,2,2-trifluoroethoxy)-1,3,4-thiadiazol-2-yl)methoxy)pyridin-2-yl)benzyl)-1-(oxetan-2-ylmethyl)-1H-benzo[d]imidazole-6-carboxylic acid]"
3,0.86 nM,"Cn1nc(COc2cccc(-c3cc(F)c(Cc4nc5ccc(C(=O)O)cc5n4C[C@@H]4CCO4)cc3F)n2)cc1C1CC1 [Example 39, (S)-2-(4-(6-((5-cyclopropyl-1-methyl-1H-pyrazol-3-yl)methoxy)pyridin-2-yl)-2,5-difluorobenzyl)-1-(oxetan-2-ylmethyl)-1H-benzo[d]imidazole-6-carboxylic acid]"
4,0.32 nM,"O=C(O)c1ccc2nc(Cc3cc(F)c(-c4cccc(OCc5cnc(C(=O)NCC(F)F)cc5Cl)n4)cc3F)n(C[C@@H]3CCO3)c2c1 [Example 192, (S)-2-(4-(6-((4-chloro-6-((2,2-difluoroethyl)carbamoyl)pyridin-3-yl)methoxy)pyridin-2-yl)-2,5-difluorobenzyl)-1-(oxetan-2-ylmethyl)-1H-benzo[d]imidazole-6-carboxylic acid]"
5,0.2 nM,"O=C(O)c1ccc2nc(Cc3cc(F)c(-c4cccc(OCc5ccc(-c6cnc(C7CC7)o6)cc5F)n4)cc3F)n(C[C@@H]3CCO3)c2c1 [Example 160, (S)-2-(4-(6-((4-(2-cyclopropyloxazol-5-yl)-2-fluorobenzyl)oxy)pyridin-2-yl)-2,5-difluorobenzyl)-1-(oxetan-2-ylmethyl)-1H-benzo[d]imidazole-6-carboxylic acid]"
6,0.81 nM,"Cn1ccc(COc2cccc(-c3cc(F)c(Cc4nc5ccc(C(=O)O)cc5n4C[C@@H]4CCO4)cc3F)n2)n1 [Example 124, (S)-2-(2,5-difluoro-4-(6-((1-methyl-1H-pyrazol-3-yl)methoxy)pyridin-2-yl)benzyl)-1-(oxetan-2-ylmethyl)-1H-benzo[d]imidazole-6-carboxylic acid]"
7,0.11 nM,"N#CCNC(=O)c1ccc(COc2cccc(-c3cc(F)c(Cc4nc5ccc(C(=O)O)cc5n4C[C@@H]4CCO4)cc3F)n2)cn1 [Example 175, (S)-2-(4-(6-((6-((cyanomethyl)carbamoyl)pyridin-3-yl)methoxy)pyridin-2-yl)-2,5-difluorobenzyl)-1-(oxetan-2-ylmethyl)-1H-benzo[d]imidazole-6-carboxylic acid]"
